Structures can show the parent of a compound that is named as a salt. A value given as a limit tells only on which side of the number the result lay.

This assay concerns the target T1, Syk tyrosine kinase (Homo sapiens, UniProt P43405).
T1 construct: purchased Carna Biosciences, Inc
The experiment in a line: Test for Syk tyrosine kinase inhibitory activity (ELISA). The note with it: Syk tyrosine kinase (Carna Biosciences), 25 μM ATP in substrate solution, 30° C. 1 hour, n=2; read-out: Evaluation (IC50, concentration inhibiting the tyrosine kinase activity at 50%). It is filed as biochemical. Summed up: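 Syk kinase (0.025 nM stock before addition) with 625 nM biotinylated peptide and 25 μM ATP (substrate-solution levels) in Tris pH 7.5, MgCl2, DTT; 1 h at 30 °C on streptavidin plates. Phosphotyrosine detected by HRP anti-pTyr antibody, TMB, A450; IC50 by non-linear regression.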
A general note: An ELISA detects its analyte on a solid surface through an enzyme-linked reagent.
For the compound `N#Cc1ccnc(Nc2cc(C3CC3)cc(-c3ccc4ncn(C5CCOCC5)c4c3)n2)c1` [Example 139, 2-({4-cyclopropyl-6-[1-(tetrahydro-2H-pyran-4-yl)-1H-benzimidazol-6-yl]pyridin-2-yl}amino)pyridine-4-carbonitrile hydrochloride], the IC50 was in the range of 5 to 50 nM.
The same measure for `N#Cc1ccnc(Nc2cc(C3CC3)cc(-c3cncc(N4CCC[C@@H](O)C4)c3)n2)c1` [Example 113, 2-({4-cyclopropyl-5′-[(3R)-3-hydroxypiperidin-1-yl]-2,3′-bipyridin-6-yl}amino)pyridine-4-carbonitrile hydrochloride]: 5 to 50 nM; for `N#Cc1ccnc(Nc2cc(C3CC3)cc(-c3ccc4cn[nH]c4c3)n2)c1` [Example 55, 2-{[4-cyclopropyl-6-(1H-indazol-6-yl)pyridin-2-yl]amino}pyridine-4-carbonitrile hydrochloride]: 5 to 50 nM.
Take `N#Cc1ccnc(Nc2cc(C3CC3)cc(-c3ccc4ccnc(N5CCNC(=O)C5)c4c3)n2)c1` [Example 158, 2-({4-cyclopropyl-6-[1-(3-oxopiperazin-1-yl)isoquinolin-7-yl]pyridin-2-yl}amino)pyridine-4-carbonitrile hydrochloride]: the IC50 was under 5 nM.
Consider `N#Cc1ccnc(Nc2cc(C3CC3)cc(-c3ccc4ncn(Cc5ccncc5)c4c3)n2)c1` [Example 133, 2-({4-cyclopropyl-6-[1-(pyridin-4-ylmethyl)-1H-benzimidazol-6-yl]pyridin-2-yl}amino)pyridine-4-carbonitrile hydrochloride], for which the IC50 lay in the range of 5 to 50 nM.
The same measure for `N#Cc1ccnc(Nc2cc(C3CC3)cc(-c3cncc(NC4CNC4)c3)n2)c1` [Example 95, 2-{[5′-(azetidin-3-ylamino)-4-cyclopropyl-2,3′-bipyridin-6-yl]amino}pyridine-4-carbonitrile hydrochloride]: under 5 nM; for `N#Cc1ccnc(Nc2cc(C3CC3)cc(-c3ccc4c(c3)ncn4Cc3ccccc3)n2)c1` [Example 137, 2-{[6-(1-benzyl-1H-benzimidazol-5-yl)-4-cyclopropylpyridin-2-yl]amino}pyridine-4-carbonitrile hydrochloride]: 50 to 500 nM.
The same measure for `N#Cc1ccnc(Nc2cc(C3CC3)cc(-c3cncc(N[C@@H]4CCNC4)c3)n2)c1` [Example 88, 2-({4-cyclopropyl-5′-[(3R)-pyrrolidin-3-ylamino]-2,3′-bipyridin-6-yl}amino)pyridine-4-carbonitrile hydrochloride]: under 5 nM; for `Cn1ncc2cc(-c3cc(C4CC4)cc(Nc4cc(C#N)ccn4)n3)ccc21` [Example 36, 2-{[4-cyclopropyl-6-(1-methyl-1H-indazol-5-yl)pyridin-2-yl]amino}pyridine-4-carbonitrile hydrochloride]: 5 to 50 nM; for `N#Cc1ccnc(Nc2cc(C3CC3)cc(-c3cncc(CN4CCS(=O)(=O)CC4)c3)n2)c1` [Example 74, 2-({4-cyclopropyl-5′-[(1,1-dioxidethiomorpholin-4-yl)methyl]-2,3′-bipyridin-6-yl}amino)pyridine-4-carbonitrile hydrochloride]: 5 to 50 nM.
The same measure for `N#Cc1ccnc(Nc2cc(C3CC3)cc(-c3ccc4ncn(C5CCNCC5)c4c3)n2)c1` [Example 173, hydrochloride]: under 5 nM.
Turning to `N#Cc1ccnc(Nc2cc(C3CC3)cc(-c3ccc4c(c3)ncn4CCCO)n2)c1` [Example 121, 2-({4-cyclopropyl-6-[1-(3-hydroxypropyl)-1H-benzimidazol-5-yl]pyridin-2-yl}amino)pyridine-4-carbonitrile hydrochloride], the IC50 lay in the range of 50 to 500 nM.
Regarding `CC(=O)NCCn1cnc2cc(-c3cc(C4CC4)cc(Nc4cc(C#N)ccn4)n3)ccc21` [Example 151, N-[2-(5-{6-[(4-cyanopyridin-2-yl)amino]-4-cyclopropylpyridin-2-yl}-1H-benzimidazol-1-yl)ethyl]acetamide hydrochloride], the IC50 is 5 to 50 nM.
